Assay results published in PMC9775177, “NLRP3-Inflammasome Inhibition with IZD334 Does Not Reduce Cardiac Damage in a Pig Model of Myocardial Infarction” (Biomedicines, 2022).
Like-named read-outs stand apart in the source and are kept apart here.

Tests used:
[1] = tested on: pig model of myocardial infarction; experiment: In vivo MI study: regional cardiac function and dobutamine echocardiography; set-up: species or system pigs; settings: high-dose group (10 mg/kg), 7 days follow-up
From the text: (§1) Oral treatment was continued for six days. […] Animals were sacrificed by exsanguination under anesthesia.
Images were made using a X7-2T transducer on an iE33 ultrasound device (Philips, Eindhoven, The Netherlands). The pig was placed in the right lateral position, and the echo probe was inserted 50–60 cm into the esophagus. We used the 3D full volume option and temporarily interrupted mechanical ventilation to assess LV geometry and function. On day 7 we additionally obtained dobutamine stress-echocardiography to assess regional cardiac function. Images were analyzed in a blinded fashion with validated software, QLab 10.7 (Philips, Eindhoven, The Netherlands).

[2] = tested on: pig model of myocardial infarction; settings: for 0 Min HR (bpm) / 30 Min MAP (mmHg) / 60 Min HR (bpm) / 90 Min MAP (mmHg) / 120 Min HR (bpm) / 150 Min MAP (mmHg): time after induction of MI
[3] = tested on: NLRP3-inflammasome; experiment: In vitro stimulation of porcine whole blood with LPS and ATP, IL-1β release; type: cell-based
Description: To confirm the ability of IZD334 to effectively attenuate porcine NLRP3-inflammasome signaling, we used a previously standardized study protocol. In short, porcine peripheral blood mononuclear cells (PBMCs) were isolated from healthy porcine animals. Whole blood samples and isolated PBMCs were stimulated with lipopolysaccharide (LPS) (1 µg/mL, L4516, Sigma-Aldrich, St. Louis, MO, USA) and increasing concentrations of IZD334. After three h of incubation, 5 mM adenosine triphosphate (ATP) (A1852, Sigma-Aldrich, St. Louis, MO, USA) was added for 1 h to induce inflammasome activation. IL-1β release was measured in the supernatant with a Luminex Immunoasssay specific for porcine IL-1β (EPX01A-66048-901, ProcartaTM Simplex, eBioscience, ThermoFisher, San Diego, CA, USA).
In short, porcine peripheral blood mononuclear cells (PBMCs) were isolated from healthy porcine animals using Ficoll density-gradient centrifugation. Whole blood samples and isolated PBMCs were stimulated with lipopolysaccharide (LPS) (1 µg/mL, L4516, Sigma-Aldrich, St. Louis, MO, USA) and increasing concentrations of IZD334 (top concentration of 10 µM with an 8-point half-log dilution). After three h of incubation, 5 mM adenosine triphosphate (ATP) (A1852, Sigma-Aldrich, St. Louis, MO, USA) was added for 1 h to induce inflammasome activation. IL-1β release was measured in the supernatant with a Luminex Immunoasssay specific for porcine IL-1β (ProcartaTM Simplex, eBioscience, San Diego, CA, USA).

[4] = Pharmacokinetics study in healthy pigs; type: in vivo
Description: Healthy female pigs (n = 3) were given intravenous (IV) treatment with IZD334 (3 mg/kg) via a 30 min infusion, and blood was collected at multiple timepoints and analyzed to determine pharmacokinetics. After a wash-out period of 3 days, the pigs received an oral dose (10 mg/kg), and plasma was again collected and analyzed.
(§2) In vivo IZD334 concentrations were measured in plasma samples using mass-spectrometry. IZD334 content was quantified using positive ionization mode and multiple reaction monitoring on a Sciex API 5500 Mass spectrometer (MRM transition: 392.0 > 176.1).
At multiple time points (0.033, 0.083, 0.17, 0.25, 0.50, 1.0, 2.0, 3.0, 4.0, 6.0, 8.0, 12.0, 24.0 h) after dosing, plasma was collected by whole-blood centrifugation at 1850× g, and samples were immediately stored to determine pharmacokinetics. After a wash-out period of 3 days, the pigs received an oral dose (10 mg/kg), and plasma was collected again at multiple time points (0.25, 0.50, 0.75, 1.0, 2.0, 3.0, 4.0, 6.0, 8.0, 12.0, 24.0 h) for pharmacokinetic purposes. Samples were sent to Sygnature Discovery (Nottingham, United Kingdom) to determine circulating levels of IZD334.
The volume of distribution at steady state (Vdss) is defined as the total concentration of IZD334 in the entire body divided by IZD334 plasma concentration. Drug clearance (Cl) was calculated by dividing the total administered dose with the area under the curve. Maximal concentration (Cmax) was obtained by calculating the mean of the highest concentrations of the separate pigs. Bioavailability (F%) was calculated using the following equation: (100 ∗ ((area under the curve oral dose × IV dose)/(area under the curve IV dose × oral dose))).

[5] = IZD334 plasma concentrations in pigs subjected to MI; type: in vivo
Description: as §1, §2

[6] = tested on: NLRP3-inflammasome; experiment: Ex vivo stimulation assay of whole blood after in vivo IZD334 infusion, IL-1β release; set-up: species or system pigs; settings: whole blood taken 60 min after in vivo infusion of 10 mg/kg, LPS + ATP; before infusion 11856 ± 1969 ng/mL, p < 0.001
Description: To more specifically determine in vivo target engagement, whole blood was obtained at baseline (prior to IZD334 infusion) and 60 min after in vivo IZD334 infusion (10 mg/kg). These samples were then stimulated with LPS and ATP in a similar fashion as in the previously described experiments. IL-1β release was measured in the supernatant with a Luminex Immunoassay specific for porcine IL-1β (ProcartaTM Simplex, eBioscience, San Diego, CA, USA).

[7] = healthy pigs n = 3, PO 10 mg/kg

CCN1CCC(S(=O)(=O)[N-]C(=O)Nc2c3c(cc4c2CCC4)CCC3)CC1.[K+] [IZD334]
Fractional area changes at mitral, mid-ventricular, and apical levels versus placebo ([1]; data not shown): equal between groups
Septal and inferolateral systolic wall thickness and thickening versus placebo ([1]; mid-ventricular level): did not differ between these groups
0 Min HR (bpm) ([2]; 1 mg/kg group, n = 6): 70 ± 12 bpm
30 Min MAP (mmHg) ([2]; 1 mg/kg group, n = 6): 85 ± 7 mmHg
60 Min HR (bpm) ([2]; 1 mg/kg group, n = 6): 68 ± 9 bpm
90 Min MAP (mmHg) ([2]; 1 mg/kg group, n = 6): 71 ± 12 mmHg
120 Min HR (bpm) ([2]; 1 mg/kg group, n = 6): 67 ± 8 bpm
150 Min MAP (mmHg) ([2]; 1 mg/kg group, n = 6): 79 ± 11 mmHg
0 Min HR (bpm) ([2]; 3 mg/kg group, n = 7): 74 ± 4 bpm
30 Min MAP (mmHg) ([2]; 3 mg/kg group, n = 7): 74 ± 13 mmHg
60 Min HR (bpm) ([2]; 3 mg/kg group, n = 7): 72 ± 11 bpm
90 Min MAP (mmHg) ([2]; 3 mg/kg group, n = 7): 58 ± 20 mmHg
120 Min HR (bpm) ([2]; 3 mg/kg group, n = 7): 61 ± 7 bpm
150 Min MAP (mmHg) ([2]; 3 mg/kg group, n = 7): 70 ± 23 mmHg
0 Min HR (bpm) ([2]; 10 mg/kg group, n = 7): 73 ± 11 bpm
30 Min MAP (mmHg) ([2]; 10 mg/kg group, n = 7): 72 ± 12 mmHg
60 Min HR (bpm) ([2]; 10 mg/kg group, n = 7): 70 ± 11 bpm
90 Min MAP (mmHg) ([2]; 10 mg/kg group, n = 7): 56 ± 19 mmHg
120 Min HR (bpm) ([2]; 10 mg/kg group, n = 7): 62 ± 7 bpm
150 Min MAP (mmHg) ([2]; 10 mg/kg group, n = 7): 62 ± 15 mmHg
Heart rate and mean arterial blood pressure versus placebo ([2]; first 2.5 h after induction of MI and subsequent compound administration, all dose groups): similar
pigs that died one day after infarct induction ([2]; low-dose (1 mg/kg) group, presumably due to late VF, also one animal in the placebo group): one animal
performance in whole blood assay compared with MCC950 ([3]; porcine whole blood assay): performs as well as MCC950
IC50 ([3]; porcine whole blood, LPS 1 µg/mL 3 h, then 5 mM ATP 1 h, read-out: half maximal inhibitory concentration (IC50), IL-1β release): 350 nM
LogIC50, whole blood stimulation ([3]; porcine whole blood, LPS + ATP, basis of log not printed (fits nM)): 2.545
AUC0-inf (ng.h/mL) ([4]; healthy pigs n = 3, IV 3 mg/kg): 27,786 ng.h/mL
Cl ([4]; healthy pigs n = 3, IV 3 mg/kg): 1.8 mL/min/kg
MRT0-inf ([4]; healthy pigs n = 3, IV 3 mg/kg): 5.3 h
Vdss ([4]; healthy pigs n = 3, IV 3 mg/kg): 0.58 L/kg
T1/2 ([4]; healthy pigs n = 3, IV 3 mg/kg, 30 min infusion): 3.9 h
AUC0-inf (ng.h/mL) [4, 7]: 86,337 ng.h/mL
Cmax (ng/mL) [4, 7]: 12,116 ng/mL
F% (bioavailability) ([4]; healthy pigs n = 3, PO 10 mg/kg versus IV 3 mg/kg): 93%
time that plasma concentrations sufficient for effective inhibition were maintained ([4]; healthy pigs, IV 3 mg/kg, based on extrapolation of in vitro results): 24 h
circulating levels 24 h after compound administration ([4]; healthy pigs, PO 10 mg/kg): adequate circulating levels
Concentration (ng/mL) Mean ([5]; 1 mg/kg group (10 mg/kg IV loading dose), Reperfusion + 4 h, n = 6): 13,192 ng/mL
Concentration (ng/mL) Mean ([5]; 1 mg/kg oral once daily group, Day 1, n = 6): 1434 ng/mL
Concentration (ng/mL) Mean ([5]; 1 mg/kg oral once daily group, Day 2, n = 6): 795 ng/mL
Concentration (ng/mL) Mean ([5]; 1 mg/kg oral once daily group, Day 3, n = 6): 555 ng/mL
Concentration (ng/mL) Mean ([5]; 1 mg/kg oral once daily group, Day 7, n = 6): 44 ng/mL
Concentration (ng/mL) Mean ([5]; 3 mg/kg group (10 mg/kg IV loading dose), Reperfusion + 4 h, n = 7): 11,992 ng/mL
Concentration (ng/mL) Mean ([5]; 3 mg/kg oral once daily group, Day 1, n = 7): 2090 ng/mL
Concentration (ng/mL) Mean ([5]; 3 mg/kg oral once daily group, Day 2, n = 7): 1501 ng/mL
Concentration (ng/mL) Mean ([5]; 3 mg/kg oral once daily group, Day 3, n = 7): 1190 ng/mL
Concentration (ng/mL) Mean ([5]; 3 mg/kg oral once daily group, Day 7, n = 7): 120 ng/mL
Concentration (ng/mL) Mean ([5]; 10 mg/kg group (10 mg/kg IV loading dose), Reperfusion + 4, n = 7): 12,312 ng/mL
Concentration (ng/mL) Mean ([5]; 10 mg/kg oral once daily group, Day 1, n = 7): 4522 ng/mL
Concentration (ng/mL) Mean ([5]; 10 mg/kg oral once daily group, Day 2, n = 7): 4213 ng/mL
Concentration (ng/mL) Mean ([5]; 10 mg/kg oral once daily group, Day 3, n = 7): 3887 ng/mL
Concentration (ng/mL) Mean ([5]; 10 mg/kg oral once daily group, Day 7, n = 7): 233 ng/mL
IL-1β release after ex vivo stimulation [6]: 3968 ng/mL
